Patent publication US20240116985A1, “STAPLED PEPTIDES AND METHODS THEREOF” (priority 2020, published 2024)
Values after ≈ are worked out from the molar mass of the structure shown.

Assays:
CHI Log D procedure = format: physicochemical; conditions: pH 7.4, CHI Log D
[1] = target: T1, full-length beta-Catenin (Uniprot ID P35222) (Homo sapiens, UniProt P35222); assay: Fluorescence polarization IC50 (beta-catenin / 5FAM-TCF4 10-53 competition); format: binding; conditions: read-out: beta-Catenin FP IC50
T1 construct: 10 nM full-length beta-Catenin (Uniprot ID P35222)
T1 sequence (P35222 1-781): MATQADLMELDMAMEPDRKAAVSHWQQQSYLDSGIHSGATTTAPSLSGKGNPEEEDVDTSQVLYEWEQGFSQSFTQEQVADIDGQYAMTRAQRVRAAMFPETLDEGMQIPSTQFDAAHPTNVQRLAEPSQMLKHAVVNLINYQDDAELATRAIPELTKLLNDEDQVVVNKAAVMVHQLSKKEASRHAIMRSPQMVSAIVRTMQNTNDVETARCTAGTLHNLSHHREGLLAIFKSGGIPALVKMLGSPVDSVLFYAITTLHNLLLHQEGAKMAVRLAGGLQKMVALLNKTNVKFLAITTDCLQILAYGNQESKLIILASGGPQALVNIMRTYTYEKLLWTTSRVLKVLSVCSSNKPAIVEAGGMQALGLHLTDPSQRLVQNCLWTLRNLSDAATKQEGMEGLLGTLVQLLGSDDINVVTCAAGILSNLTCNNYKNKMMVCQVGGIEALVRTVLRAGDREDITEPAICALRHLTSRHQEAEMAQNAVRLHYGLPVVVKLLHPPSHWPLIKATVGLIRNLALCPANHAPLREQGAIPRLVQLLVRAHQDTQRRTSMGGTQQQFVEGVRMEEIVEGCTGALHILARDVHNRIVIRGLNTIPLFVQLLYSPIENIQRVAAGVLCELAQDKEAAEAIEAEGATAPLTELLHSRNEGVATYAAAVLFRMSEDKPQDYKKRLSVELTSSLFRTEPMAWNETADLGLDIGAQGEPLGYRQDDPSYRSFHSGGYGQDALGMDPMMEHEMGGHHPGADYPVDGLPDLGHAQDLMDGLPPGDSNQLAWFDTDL

[2] = target: T2, beta-catenin/TCF4 engagement (Homo sapiens, UniProt P35222); assay: Nano-BRET target engagement assay (B-cat-Halo & TCF4-Luc in HEK293 cells); format: cell-based; conditions: read-out: NanoBRET Abs IC50
T2 construct: expressed in transfected cells; host or cells: HEK293
T2 sequence (P35222 1-781): T1 sequence (P35222 1-781)

Solubility in PBS = format: physicochemical; conditions: Solubility (uM)
Summary of the method: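 The PBS solution was ultracentrifuged and the supernatant analyzed by HPLC. Its peak area was divided by that of a 50 μM peptide DMSO reference injection and multiplied by 50 uM to give solubility.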

Compound	chromatographic logD (CHI Log D procedure)	IC50 [1] [nM]	IC50 [2] [nM]	Solubility (Solubility in PBS) [µM]	solubility at 15 min (Solubility in PBS) [µM]
CC(=O)N1CCC[C@]12CC=CCCCC1(CCCC=CCCCOC(=O)N3CC[C@@](C(=O)N[C@@H](Cc4ccsc4)C(=O)N[C@@H](Cc4csc5ccccc45)C(=O)N[C@@H](CCC(N)=O)C(N)=O)(C3)NC(=O)[C@H](CC(N)=O)NC(=O)[C@H](Cc3ccccc3)NC(=O)[C@H](CCCCNC(=O)CN3CCOCC3)NC(=O)[C@H](C)NC(=O)[C@H](CC(=O)O)NC(=O)[C@H](CC(=O)O)NC1=O)NC(=O)[C@H](CC(C)(C)C)NC(=O)[C@H](CC(=O)O)NC2=O (stereo partly drawn) [I-886, Ac-PL3-Asp-Npg-B5-Asp-Asp-Ala-[MorphAc]Lys-Phe-Asn-PyrS2-3Thi-BztA-Gln-NH2]	1.51	22	> 20000	43 (≈ 90.4 µg/mL)	
CC(=O)N1CCC[C@]12CC=CCCCC1(CCCC=CCCCOC(=O)N3CC[C@@](C(=O)N[C@@H](Cc4ccsc4)C(=O)N[C@@H](Cc4csc5ccccc45)C(=O)N[C@@H](CCC(N)=O)C(N)=O)(C3)NC(=O)[C@H](CC(N)=O)NC(=O)[C@H](Cc3ccccc3)NC(=O)[C@H](CCCCNC(=O)CN3CCN(C)CC3)NC(=O)[C@H](C)NC(=O)[C@H](CC(=O)O)NC(=O)[C@H](CC(=O)O)NC1=O)NC(=O)[C@H](CC(C)(C)C)NC(=O)[C@H](CC(=O)O)NC2=O (stereo partly drawn) [I-887, Ac-PL3-Asp-Npg-B5-Asp-Asp-Ala-[MePipAc]Lys-Phe-Asn-PyrS2-3Thi-BztA-Gln-NH2]	1.37	14	> 20000	46 (≈ 97.3 µg/mL)	
CC(=O)N1CCC[C@]12CC=CCCCC1(CCCC=CCCCOC(=O)N3CC[C@@](C(=O)N[C@@H](Cc4ccsc4)C(=O)N[C@@H](Cc4csc5ccccc45)C(=O)N[C@@H](CCC(N)=O)C(N)=O)(C3)NC(=O)[C@H](CC(N)=O)NC(=O)[C@H](Cc3ccccc3)NC(=O)[C@H](CCCCNC(=O)c3ccc(CN4CCN(C)CC4)cc3)NC(=O)[C@H](C)NC(=O)[C@H](CC(=O)O)NC(=O)[C@H](CC(=O)O)NC1=O)NC(=O)[C@H](CC(C)(C)C)NC(=O)[C@H](CC(=O)O)NC2=O (stereo partly drawn) [I-889, Ac-PL3-Asp-Npg-B5-Asp-Asp-Ala-[4MePipBz]Lys-Phe-Asn-PyrS2-3Thi-BztA-Gln-NH2]	1.49	16	> 20000		41 (≈ 89.9 µg/mL)
CC(=O)N1CCC[C@]12CC=CCCCC1(CCCC=CCCCOC(=O)N3CC[C@@](C(=O)N[C@@H](Cc4ccsc4)C(=O)N[C@@H](Cc4csc5ccccc45)C(=O)N[C@@H](CCC(N)=O)C(N)=O)(C3)NC(=O)[C@H](CC(N)=O)NC(=O)[C@H](Cc3ccccc3)NC(=O)[C@H](CCCCNC(=O)c3ccc(CN4CCOCC4)cc3)NC(=O)[C@H](C)NC(=O)[C@H](CC(=O)O)NC(=O)[C@H](CC(=O)O)NC1=O)NC(=O)[C@H](CC(C)(C)C)NC(=O)[C@H](CC(=O)O)NC2=O (stereo partly drawn) [I-890, Ac-PL3-Asp-Npg-B5-Asp-Asp-Ala-[MeMorphBz]Lys-Phe-Asn-PyrS2-3Thi-BztA-Gln-NH2]	1.67	16	> 20000	40 (≈ 87.1 µg/mL)	
COCCOCCOCCOCCOCCOCCC(=O)NCCCC[C@@H]1NC(=O)[C@H](C)NC(=O)[C@H](CC(=O)O)NC(=O)[C@H](CC(=O)O)NC(=O)C2(CCCC=CCCCOC(=O)N3CC[C@@](C(=O)N[C@@H](Cc4ccsc4)C(=O)N[C@@H](Cc4csc5ccccc45)C(=O)N[C@@H](CCC(N)=O)C(N)=O)(C3)NC(=O)[C@H](CC(N)=O)NC(=O)[C@H](Cc3ccccc3)NC1=O)CCCC=CC[C@]1(CCCN1C(C)=O)C(=O)N[C@@H](CC(=O)O)C(=O)N[C@@H](CC(C)(C)C)C(=O)N2 (stereo partly drawn) [I-895, Ac-PL3-Asp-Npg-B5-Asp-Asp-Ala-[mPEG6]Lys-Phe-Asn-PyrS2-3Thi-BztA-Gln-NH2]	1.45	14	> 20000	31 (≈ 70.7 µg/mL)	
COCCOCCOCCOCCOCCOCCOCCOCCC(=O)NCCCC[C@@H]1NC(=O)[C@H](C)NC(=O)[C@H](CC(=O)O)NC(=O)[C@H](CC(=O)O)NC(=O)C2(CCCC=CCCCOC(=O)N3CC[C@@](C(=O)N[C@@H](Cc4ccsc4)C(=O)N[C@@H](Cc4csc5ccccc45)C(=O)N[C@@H](CCC(N)=O)C(N)=O)(C3)NC(=O)[C@H](CC(N)=O)NC(=O)[C@H](Cc3ccccc3)NC1=O)CCCC=CC[C@]1(CCCN1C(C)=O)C(=O)N[C@@H](CC(=O)O)C(=O)N[C@@H](CC(C)(C)C)C(=O)N2 (stereo partly drawn) [I-896, Ac-PL3-Asp-Npg-B5-Asp-Asp-Ala-[mPEG8]Lys-Phe-Asn-PyrS2-3Thi-BztA-Gln-NH2]	1.45	22	> 20000		30 (≈ 71.1 µg/mL)
CCCC(=O)NCCCC[C@@H]1NC(=O)[C@H](C)NC(=O)[C@H](CC(=O)O)NC(=O)[C@H](CC(=O)O)NC(=O)C2(CCCC=CCCCOC(=O)N3CC[C@@](C(=O)N[C@@H](Cc4ccsc4)C(=O)N[C@@H](Cc4csc5ccccc45)C(=O)N[C@@H](CCC(N)=O)C(N)=O)(C3)NC(=O)[C@H](CC(N)=O)NC(=O)[C@H](Cc3ccccc3)NC1=O)CCCC=CC[C@]1(CCCN1C(C)=O)C(=O)N[C@@H](CC(=O)O)C(=O)N[C@@H](CC(C)(C)C)C(=O)N2 (stereo partly drawn) [I-897, Ac-PL3-Asp-Npg-B5-Asp-Asp-Ala-[Bua]Lys-Phe-Asn-PyrS2-3Thi-BztA-Gln-NH2]	1.65	16	> 20000	43 (≈ 88 µg/mL)	
CCCCCCCC(=O)NCCCC[C@@H]1NC(=O)[C@H](C)NC(=O)[C@H](CC(=O)O)NC(=O)[C@H](CC(=O)O)NC(=O)C2(CCCC=CCCCOC(=O)N3CC[C@@](C(=O)N[C@@H](Cc4ccsc4)C(=O)N[C@@H](Cc4csc5ccccc45)C(=O)N[C@@H](CCC(N)=O)C(N)=O)(C3)NC(=O)[C@H](CC(N)=O)NC(=O)[C@H](Cc3ccccc3)NC1=O)CCCC=CC[C@]1(CCCN1C(C)=O)C(=O)N[C@@H](CC(=O)O)C(=O)N[C@@H](CC(C)(C)C)C(=O)N2 (stereo partly drawn) [I-898, Ac-PL3-Asp-Npg-B5-Asp-Asp-Ala-[Oct]Lys-Phe-Asn-PyrS2-3Thi-BztA-Gln-NH2]	2.2	16	> 20000	42 (≈ 88.3 µg/mL)	
CC(=O)N1CCC[C@]12CC=CCCCC1(CCCC=CCCCOC(=O)N3CC[C@@](C(=O)N[C@@H](Cc4ccsc4)C(=O)N[C@@H](Cc4csc5ccccc45)C(=O)N[C@@H](CCC(N)=O)C(N)=O)(C3)NC(=O)[C@H](CC(N)=O)NC(=O)[C@H](Cc3ccccc3)NC(=O)[C@H](CCCCNC(=O)C34CC5CC(CC(C5)C3)C4)NC(=O)[C@H](C)NC(=O)[C@H](CC(=O)O)NC(=O)[C@H](CC(=O)O)NC1=O)NC(=O)[C@H](CC(C)(C)C)NC(=O)[C@H](CC(=O)O)NC2=O (stereo partly drawn) [I-899, Ac-PL3-Asp-Npg-B5-Asp-Asp-Ala-[AdamantC]Lys-Phe-Asn-PyrS2-3Thi-BztA-Gln-NH2]	2.26	28	> 20000	40 (≈ 85.5 µg/mL)	
CC(=O)N1CCC[C@]12CC=CCCCC1(CCCC=CCCCOC(=O)N3CC[C@@](C(=O)N[C@@H](Cc4ccsc4)C(=O)N[C@@H](Cc4csc5ccccc45)C(=O)N[C@@H](CCC(N)=O)C(N)=O)(C3)NC(=O)[C@H](CC(N)=O)NC(=O)[C@H](Cc3ccccc3)NC(=O)[C@H](CCCCNC(=O)C34CC5(C)CC(C)(CC(C)(C5)C3)C4)NC(=O)[C@H](C)NC(=O)[C@H](CC(=O)O)NC(=O)[C@H](CC(=O)O)NC1=O)NC(=O)[C@H](CC(C)(C)C)NC(=O)[C@H](CC(=O)O)NC2=O (stereo partly drawn) [I-900, Ac-PL3-Asp-Npg-B5-Asp-Asp-Ala-[Me3AdamantC]Lys-Phe-Asn-PyrS2-3Thi-BztA-Gln-NH2]	2.74	33	> 20000	41 (≈ 89.4 µg/mL)	
CC(=O)N1CCC[C@]12CC=CCCCC1(CCCC=CCCCOC(=O)N3CC[C@@](C(=O)N[C@@H](Cc4ccsc4)C(=O)N[C@@H](Cc4csc5ccccc45)C(=O)N[C@@H](CCC(N)=O)C(=O)N[C@@H](CCCCNC(=O)CCc4cccc5ccccc45)C(N)=O)(C3)NC(=O)[C@H](CC(N)=O)NC(=O)[C@H](Cc3ccccc3)NC(=O)[C@H](C)NC(=O)[C@H](C)NC(=O)[C@H](CC(=O)O)NC(=O)[C@H](CC(=O)O)NC1=O)NC(=O)[C@H](CC(C)(C)C)NC(=O)[C@H](CC(=O)O)NC2=O (stereo partly drawn) [I-903, Ac-PL3-Asp-Npg-B5-Asp-Asp-Ala-Ala-Phe-Asn-PyrS2-3Thi-BztA-Gln-[1NapPr]Lys-NH2]	2.38	33	7800	43 (≈ 95.8 µg/mL)	
